From EP4741386A1 (Jiangsu Yahong Meditech Co., Ltd., priority 2023, dated 2025)

Tests used:
[1] = biological target: T1, Recombinant human His6-USP1/His6-UAF1 complex protein (Homo sapiens, UniProt O94782); assay: In vitro inhibitory activity against USP1 (Ubiquitin Rhodamine 110 fluorescence detection, 384-well plate); assay type: biochemical; details: Ub-Rho substrate, 1 hour pre-incubation, read after 30 minutes
T1 construct: His6; purchased R&D E-568-050
Outline: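 Compounds, kept as 50 mM DMSO stocks, were acoustically dispensed into modified Tris buffer. Inhibition of recombinant human His6-USP1/His6-UAF1 was read by fluorescence from cleavage of Ub-Rho110 substrate.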

MDA-MB-436 = assay: CTG experiment for cell viability (CellTiter-Glo, 96-well plate, 7 days); assay type: cell-based; details: Homo sapiens, MDA-MB-436, 168 h, MDA-MB-436 cells, 7 days culture with compound
Description: Test Example 2: CTG experiment for cell viability
• 1. Object: to screen USP1 inhibitors by a CTG assay, using a 96-well plate. • 2. Materials: • The cells used were MDA-MB-436 (manufacturer: Nanjing Cobioer Biotechnology Co., Ltd.) and cultured in DMEM medium, • CTG (CellTiter-Glo® Luminescent Cell Viability Assay kit) (Promega, Cat. No.: G7572), • 96-well plate (Corning, Cat. No.: 3610). • 3. Compounds: all compounds were dissolved in 100% DMSO to obtain 50 mM stock solutions. • 4. Experimental method: • ① Plating: The cells to be tested were spread into a 96-well plate at a certain density, with 200 µL per well, and 200 µL of cell medium was added to the blank wells. […] The cell plate with the compounds was placed in an incubator at 37°C, and further cultured for 7 days prior to detection. • ④ Assay: The substrate and the buffer of CTG kit were mixed evenly. The cell plate with the compounds in Step ③ was taken out from the incubator, and left at room temperature to equilibrate for 30 minutes. The medium containing the compounds was removed from the cell plate, 100 µL of PBS and 50 µL of CTG reagent were added to each well, shaken and mixed for 3 minutes, and then incubated for 10 minutes at room temperature. The plate was read by a BIotek microplate-reader, with a parameter set to 567 CPM. • 5. Curve fitting
It was the same as that for the enzyme.

T1 sequence (O94782 whole entry): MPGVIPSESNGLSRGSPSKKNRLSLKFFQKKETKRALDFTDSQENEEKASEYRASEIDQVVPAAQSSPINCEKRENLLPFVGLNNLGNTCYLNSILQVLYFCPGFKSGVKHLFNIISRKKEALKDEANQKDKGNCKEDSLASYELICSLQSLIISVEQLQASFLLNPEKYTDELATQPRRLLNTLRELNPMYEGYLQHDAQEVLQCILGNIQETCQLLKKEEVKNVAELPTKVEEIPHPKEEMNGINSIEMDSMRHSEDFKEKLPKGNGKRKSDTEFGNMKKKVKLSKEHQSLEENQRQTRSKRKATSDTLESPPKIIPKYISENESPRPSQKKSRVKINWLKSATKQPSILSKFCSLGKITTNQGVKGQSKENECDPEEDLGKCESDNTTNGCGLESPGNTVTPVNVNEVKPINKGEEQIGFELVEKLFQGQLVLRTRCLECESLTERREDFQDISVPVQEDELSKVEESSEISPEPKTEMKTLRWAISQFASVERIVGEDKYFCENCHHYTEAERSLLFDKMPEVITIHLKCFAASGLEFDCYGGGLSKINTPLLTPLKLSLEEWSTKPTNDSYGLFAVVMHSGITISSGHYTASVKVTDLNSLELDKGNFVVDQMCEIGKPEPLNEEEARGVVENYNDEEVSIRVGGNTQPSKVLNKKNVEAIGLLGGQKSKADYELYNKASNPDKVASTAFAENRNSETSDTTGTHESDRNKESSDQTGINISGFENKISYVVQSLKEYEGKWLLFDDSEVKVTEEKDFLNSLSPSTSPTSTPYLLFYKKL
T1 sequence (Q8TAF3 whole entry partner): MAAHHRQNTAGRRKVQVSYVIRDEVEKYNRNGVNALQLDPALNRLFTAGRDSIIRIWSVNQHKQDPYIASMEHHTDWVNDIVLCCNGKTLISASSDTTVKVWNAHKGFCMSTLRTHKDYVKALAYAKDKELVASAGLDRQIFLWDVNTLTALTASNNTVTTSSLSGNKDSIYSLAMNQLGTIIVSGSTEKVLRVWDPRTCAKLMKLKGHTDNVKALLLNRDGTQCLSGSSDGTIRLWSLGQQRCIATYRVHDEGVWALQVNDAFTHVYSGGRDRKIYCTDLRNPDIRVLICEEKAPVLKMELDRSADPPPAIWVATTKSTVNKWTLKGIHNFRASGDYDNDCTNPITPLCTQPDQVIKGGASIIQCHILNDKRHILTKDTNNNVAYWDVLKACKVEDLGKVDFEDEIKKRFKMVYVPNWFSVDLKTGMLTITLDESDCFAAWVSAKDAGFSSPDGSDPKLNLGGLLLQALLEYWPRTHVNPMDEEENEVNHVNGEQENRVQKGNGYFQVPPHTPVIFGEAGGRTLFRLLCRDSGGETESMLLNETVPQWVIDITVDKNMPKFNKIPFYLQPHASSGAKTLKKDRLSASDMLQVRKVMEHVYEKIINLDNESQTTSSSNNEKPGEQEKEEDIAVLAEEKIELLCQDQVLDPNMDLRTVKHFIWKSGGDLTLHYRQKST

SMILES	IC50 [1]	IC50 (MDA-MB-436)
CC(C)c1ccccc1-c1nc(NCc2ccc(-c3nc(C(F)(F)F)cn3C)cc2)c2ncccc2n1 [Example 40, 2-(2-Isopropylphenyl)-N-(4-(1-methyl-4-(trifluoromethyl)-1H-imidazol-2-yl)benzyl)pyrido[3,2-d]pyrimidin-4-amine]	2.3 nM	21.4 nM
COc1ncnc(C2CC2)c1-c1nc(NCc2ccc(-n3nc(C(F)(F)F)cc3C)cc2)c2occc2n1 [Example 50, 2-(4-Cyclopropyl-6-methoxypyrimidin-5-yl)-N-(4-(5-methyl-3-(trifluoromethyl)-1H-pyrazol-1-yl)benzyl)furo[3,2-d]pyrimidin-4-amine]	5.2 nM	0.022 nM
Cc1cc(C(F)(F)F)nn1-c1ccc(CNc2nc(-c3ccccc3C(C)C)nc3ccoc23)cc1 [Example 57, 2-(2-Isopropylphenyl)-N-(4-(5-methyl-3-(trifluoromethyl)-1H-pyrazol-1-yl)benzyl)furo[3,2-d]pyrimidin-4-amine]	4.4 nM	48.3 nM
COc1cnc(-c2ccccc2C(C)C)nc1N(C)CC1CCC(c2ccccn2)CC1 (stereo not shown) [Example 61, 2-(2-isopropylphenyl)-5-methoxy-N-methyl-N-((4-(pyridin-2-yl)cyclohexyl)methyl)pyrimidin-4-amine]	11 nM	813 nM
COc1cnc(-c2ccccc2C(C)C)nc1N(C)CC1CCN(c2nc(C(F)(F)F)cn2C)CC1 [Example 62, 2-(2-Isopropylphenyl)-5-methoxy-N-methyl-N-((1-(1-methyl-4-(trifluoromethyl)-1H-imidazol-2-yl)piperidin-4-yl)methyl)pyrimidin-4-amine]	2.1 nM	2.2 nM
COc1cnc(-c2ccccc2C(C)C)nc1NCC1CCC(c2ccccn2)CC1 (stereo not shown) [Example 63, 2-(2-Isopropylphenyl)-5-methoxy-N-((4-(pyridin-2-yl)cyclohexyl)methyl)pyrimidin-4-amine]	3.3 nM	30 nM
COc1cnc(-c2ccccc2C(C)C)nc1NCc1ccc(-c2ccccn2)cc1 [Example 64, 2-(2-Isopropylphenyl)-5-methoxy-N-(4-(pyridin-2-yl)benzyl)pyrimidin-4-amine]	3.7 nM	6.3 nM
COc1cnc(-c2ccccc2C(C)C)nc1NCC1CCN(c2nc(C(F)(F)F)cn2C)CC1 [Example 65, 2-(2-Isopropylphenyl)-5-methoxy-N-((1-(1-methyl-4-(trifluoromethyl)-1H-imidazol-2-yl)piperidin-4-yl)methyl)pyrimidin-4-amine]	2.1 nM	2.4 nM
COc1cnc(-c2ccccc2C(C)C)nc1NCc1ccc(-c2ccc(C)cn2)cc1 [Example 66, 2-(2-Isopropylphenyl)-5-methoxy-N-(4-(5-methylpyridin-2-yl)benzyl)pyrimidin-4-amine]	5.6 nM	14.6 nM
CCOCCOc1ccc(CNc2nc(-c3ccccc3C(C)C)ncc2OC)cc1 [Example 68, N-(4-(2-Ethoxyethoxy)benzyl)-2-(2-isopropylphenyl)-5-methoxypyrimidin-4-amine]	3.2 nM	267 nM
COc1cc(CNc2nc(-c3ccccc3C(C)C)ncc2OC)ccc1-n1nc(C(F)(F)F)cc1C [Example 69, 2-(2-Isopropylphenyl)-5-methoxy-N-(3-methoxy-4-(5-methyl-3-(trifluoromethyl)-1H-pyrazol-1-yl)benzyl)pyrimidin-4-amine]	9.2 nM	709 nM
CC(C)Oc1cnc(-c2ccccc2C(C)C)nc1N(C)CC1CCN(c2nc(C(F)(F)F)cn2C)CC1 [Example 70, 5-Isopropoxy-2-(2-isopropylphenyl)-N-methyl-N-((1-(1-methyl-4-(trifluoromethyl)-1H-imidazol-2-yl)piperidin-4-yl)methyl)pyrimidin-4-amine]	19.4 nM	600 nM
CC(C)Oc1cnc(-c2ccccc2C(C)C)nc1N(C)Cc1ccc(-c2nc(C(F)(F)F)cn2C)cc1 [Example 71, 5-Isopropoxy-2-(2-isopropylphenyl)-N-methyl-N-(4-(1-methyl-4-(trifluoromethyl)-1H-imidazol-2-yl)benzyl)pyrimidin-4-amine]	9.9 nM	274 nM
CC(C)Oc1cnc(-c2ccccc2C(C)C)nc1NCC1CCN(c2nc(C(F)(F)F)cn2C)CC1 [Example 72, 5-Isopropoxy-2-(2-isopropylphenyl)-N-((1-(1-methyl-4-(trifluoromethyl)-1H-imidazol-2-yl)piperidin-4-yl)methyl)pyrimidin-4-amine]	6.1 nM	181 nM
CC(C)Oc1cnc(-c2ccccc2C(C)C)nc1NCc1ccc(-c2nc(C(F)(F)F)cn2C)cc1 [Example 73, 5-Isopropoxy-2-(2-isopropylphenyl)-N-(4-(1-methyl-4-(trifluoromethyl)-1H-imidazol-2-yl)benzyl)pyrimidin-4-amine]	3.6 nM	112 nM

Now from value to molecule:

IC50 [1]	IC50 (MDA-MB-436)	SMILES
3.7 nM	331 nM	CC(C)c1ccccc1-c1ncc(C(F)(F)F)c(NCC2CCN(c3nc(C(F)(F)F)cn3C)CC2)n1 [Example 75, 2-(2-Isopropylphenyl)-N-((1-(1-methyl-4-(trifluoromethyl)-1H-imidazol-2-yl)piperidin-4-yl)methyl)-5-(trifluoromethyl)pyrimidin-4-amine]
3.7 nM	66.1 nM	COc1cc(-c2nc(C(F)(F)F)cn2C)ccc1CNc1nc(-c2ccccc2C(C)C)nc2ccoc12 [Example 81, 2-(2-Isopropylphenyl)-N-(2-methoxy-4-(1-methyl-4-(trifluoromethyl)-1H-imidazol-2-yl)benzyl)furo[3,2-d]pyrimidin-4-amine]
1.7 nM	278 nM	COc1cc(CNc2nc(-c3ccccc3C(C)C)nc3ccoc23)ccc1-c1nc(C(F)(F)F)cn1C [Example 82, 2-(2-Isopropylphenyl)-N-(3-methoxy-4-(1-methyl-4-(trifluoromethyl)-1H-imidazol-2-yl)benzyl)furo[3,2-d]pyrimidin-4-amine]
4.4 nM	99.1 nM	COc1cc(-n2nc(C(F)(F)F)cc2C)ccc1CNc1nc(-c2ccccc2C(C)C)nc2ccoc12 [Example 83, 2-(2-Isopropylphenyl)-N-(2-methoxy-4-(5-methyl-3-(trifluoromethyl)-1H-pyrazol-1-yl)benzyl)furo[3,2-d]pyrimidin-4-amine]
9 nM	704 nM	COc1cc(CNc2nc(-c3ccccc3C(C)C)nc3ccoc23)ccc1-n1nc(C(F)(F)F)cc1C [Example 84, 2-(2-Isopropylphenyl)-N-(3-methoxy-4-(5-methyl-3-(trifluoromethyl)-1H-pyrazol-1-yl)benzyl)furo[3,2-d]pyrimidin-4-amine]
0.47 nM	22.5 nM	C#Cc1cnc(-c2ccccc2C(C)C)nc1NCc1ccc(-c2nc(C(F)(F)F)cn2C)cc1 [Example 85, 5-Ethynyl-2-(2-isopropylphenyl)-N-(4-(1-methyl-4-(trifluoromethyl)-1H-imidazol-2-yl)benzyl)pyrimidin-4-amine]
1.1 nM	29.4 nM	CC(C)c1ccccc1-c1ncc(OC(F)F)c(NCc2ccc(-c3nc(C(F)(F)F)cn3C)cc2)n1 [Example 86, 5-(Difluoromethoxy)-2-(2-isopropylphenyl)-N-(4-(1-methyl-4-(trifluoromethyl)-1H-imidazol-2-yl)benzyl)pyrimidin-4-amine]
10 nM	157 nM	CC(C)c1ccccc1-c1ncc(N2CCN(C)CC2)c(NCc2ccc(-c3nc(C(F)(F)F)cn3C)cc2)n1 [Example 88, 2-(2-Isopropylphenyl)-N-(4-(1-methyl-4-(trifluoromethyl)-1H-imidazol-2-yl)benzyl)-5-(4-methylpiperazin-1-yl)pyrimidin-4-amine]
14.4 nM	243 nM	CC(C)c1ccccc1-c1ncc(O)c(NCc2ccc(-c3nc(C(F)(F)F)cn3C)cc2)n1 [Example 89, 2-(2-Isopropylphenyl)-4-((4-(1-methyl-4-(trifluoromethyl)-1H-imidazol-2-yl)benzyl)amino)pyrimidin-5-ol]
1.3 nM	479 nM	COC(=O)Cc1cnc(-c2ccccc2C(C)C)nc1NCc1ccc(-c2nc(C(F)(F)F)cn2C)cc1 [Example 91, Methyl 2-(2-(2-isopropylphenyl)-4-((4-(1-methyl-4-(trifluoromethyl)-1H-imidazol-2-yl)benzyl)amino)pyrimidin-5-yl)acetate]
3.3 nM	27.3 nM	COc1cnc(-c2c(OC)ncnc2C2CC2)nc1N(C)CC1CCN(c2nc(C(F)(F)F)cn2C)CC1 [Example 92, 4'-Cyclopropyl-5,6'-dimethoxy-N-methyl-N-((1-(1-methyl-4-(trifluoromethyl)-1 H-imidazol-2-yl)piperidin-4-yl)methyl)-[2,5'-bipyrimidin]-4-amine]
